From US11576944B2, “Grape extracts and methods relating thereto” (priority 2016, dated 2023)
“Also recorded” adds a separate entry of the source.

How the values were obtained:
[1] = system: ZR-75-1 human ER+ breast tumors; experiment: ZR-75-1 ER+ breast tumors in athymic mice, with tamoxifen; format: in vivo, mouse; details: 7 weeks
Description: The mammary fat pads of athymic mice were injected with ZR-75-1 ER+ cells (1×10^6 cells), and tumor growth was measured every third day using a caliper.
Sections were incubated with an antibody to Ki67, a marker of proliferation.
The 4th inguinal mammary pads of athymic mice (female, 15-20 g, 5-6 weeks of age) were injected with 1×10^6 actively growing ZR-75-1 or MCF7 human ER+ breast cancer cells. […] Tumor size was measured twice a week in conscious animals, using a caliper, and tumor volume was calculated using the formula for a semi-ellipsoid (4/3πr^3)/2)]. […] After 7 weeks of treatment for the mice containing ZR-75-1 human ER+ breast tumors or 5 weeks of treatment for the mice containing MCF7 ER+ breast tumors, the mice were sacrificed and the tumors were removed and weighed.

[2] = system: MCF7 human ER+ breast tumors; experiment: MCF7 ER+ breast tumors in athymic mice, with tamoxifen; format: in vivo, mouse; details: 5 weeks
Description: The mammary fat pads of athymic mice were injected with MCF7 human ER+ cells (1×10^6 cells) and tumor growth was measured every third day using a caliper.
The 4th inguinal mammary pads of athymic mice (female, 15-20 g, 5-6 weeks of age) were injected with 1×10^6 actively growing ZR-75-1 or MCF7 human ER+ breast cancer cells. The mice were group housed in cages with HEPA-filtered air on 12-h light/dark cycles and were fed regular rat chow ad libitum. Tumor size was measured twice a week in conscious animals, using a caliper, and tumor volume was calculated using the formula for a semi-ellipsoid (4/3πr^3)/2)]. […] After 7 weeks of treatment for the mice containing ZR-75-1 human ER+ breast tumors or 5 weeks of treatment for the mice containing MCF7 ER+ breast tumors, the mice were sacrificed and the tumors were removed and weighed.

[3] = system: angiotensin II (Ang II)-induced hypertension; experiment: Ang II-induced hypertension and cardiac damage in rats; format: in vivo, rat; details: Ang II alone 24 μg/kg/h via osmotic mini-pump, at 4 weeks (from 120.4±2.4)
Description: The effect of p-MGE on hypertension and hypertension-induced cardiac damage was measured in rats with angiotensin II (Ang II)-induced hypertension. Sprague-Dawley rats (male, 8-12 weeks of age) were treated for 4 weeks with regular drinking water (Control), p-MGE alone (0.2 mg/mL of total phenolics in their drinking water), Ang II alone (24 μg/kg/h via implanted osmotic mini-pump) or p-MGE and Ang II. For a 250 g rat, this amount of p-MGE corresponds to approximately 20 mg phenolics/kg/day. Administration of p-MGE was initiated 1 week prior to treatment with Ang II. Blood pressure was recorded weekly by tail-cuff plethysmography, at the same time of day by the same individual. […] Scans to quantify cardiac parameters were taken in M mode parasternal short axis view at mid-papillary level, Tissue Doppler in 4 chamber view at the mitral annulus, and pulse wave Doppler in 4 chamber view to measure transmitral inflow. The ejection fraction of the heart and fractional shortening were measured in M mode parasternal short axis view at the mid-papillary level, using the VisualSonics Vevo 2100 High-Resolution Imaging System, as a measure of systolic function. […] Diastolic function was measured as e′, to assess the relaxation of the left ventricle, and E/e′, to assess the filling pressure of the left ventricle. […]

[4] = p-MGE 0.1 mg phenolics/mL drinking water, tamoxifen ~32 mg/kg/d in chow, or both
[5] = p-MGE 0.1 mg phenolics/mL, tamoxifen ~32 mg/kg/d, or both

Compound | tumor volume / growth [1, 4] | Ki67 positive cells in tumor sections [1, 5] | tumor weight [1, 5] | tumor volume / growth [2, 4] | tumor weight [2, 5] | systolic blood pressure (tail cuff) [3] [mm Hg]
CC/C(=C(\c1ccccc1)c1ccc(OCCN(C)C)cc1)c1ccccc1 [tamoxifen] | reduced the growth of both ER+ tumors; also recorded: also reduced tumor size | associated with a reduction in the number of cells which were positive for the proliferation marker Ki67; also recorded: also significantly reduced proliferation | also reduced tumor weight | reduced the growth of both ER+ tumors; also recorded: also reduced tumor size | also reduced tumor weight | 
angiotensin II (DRVYIHPF; Angiotensin-2; UniProt P01015 25-32, looked up) [Ang II, used to induce hypertension in rats] |  |  |  |  |  | 213.1±6.8
